# Experimental data as given in paper PMC5007466, “VCP recruitment to mitochondria causes mitophagy impairment and neurodegeneration in models of Huntington's disease” (Nature Communications, 2016).
# What was measured:
# [1] = system: HD patient-iPS cell derived neurons; assay: Lysosomal activity (Lyso-ID Red); format: cell-based, human; settings: 1 μM per day for 5 days
# Experimental: iPS cells from a normal subject and a HD patient (carrying 41 CAG repeats) were differentiated into neurons using the protocol from our previous studies. Briefly, iPS cells were plated onto 6-well plates precoated with 2.5% Matrigel and allowed to reach 90% confluence in feeder-free medium. For the first 10 days, cells were treated with SB431542 (10 μM; Tocris Bioscience) and Noggin (100 ng/ml) in Neural Media (NM) containing Neurobasal and DMEM (1:1), B27 supplement minus vitamin A (50 × , Invitrogen), N2 supplement (100 × , Invitrogen), GlutaMax (Invitrogen, 100 × ), FGF2 ([…]) and EGF ([…]), 100 units per ml penicillin and 100 μg ml^−1 streptomycin). […]
# To determine mitochondrial mass in cultures, cells were stained with antibodies against Tom20 or stained with Mitotracker green. The fluorescent density of Tom20 (1:500) or mitotracker green was quantitated using NIH Image J software. […] The images were visualized by microscope and quantitation of the density of red fluorescence was carried out using NIH ImageJ software. For immunocytochemistry study, at least 100 cells per group were counted and quantitated by an observer blind to experimental conditions.
# [2] = system: VCP/Htt interaction (GST-VCP with full-length Htt of mouse brain lysate); assay: GST pull-down of VCP/Htt interaction; format: binding; settings: GST-VCP + total mouse brain lysate, 3 µM peptide, 16 h, n = 3
# Experimental: Bacteria-expressed GST or GST–VCP, or GST–VCP truncated mutants were immobilized on glutathione-Sepharose 4B beads (GE Healthcare) for three hours and then washed three times. Beads were incubated with total lysates of mouse brains overnight at 4 °C. Beads were then washed with a GST binding buffer (100 mM NaCl, 50 mM NaF, 2 mM EDTA, 1% Triton-X-100 and protease inhibitor cocktail) and were analysed by SDS–PAGE and IB.
# Supplementary Figure 4: Rational design of a peptide inhibitor to block VCP/Htt interaction. (a) GST or GST-VCP was incubated with total lysates of mouse brain and the indicated peptides ( 3 µM) for 16 hours, followed by immunoblotting with anti-Htt antibodies. Representative blots are from three independent experiments. Quantitation of VCP/Htt binding was shown below the blot as the m ean of three independent experiments. Data are mean ± SEM. *, p<0.05 vs. T AT -treated group (Paired Student’s t test). (b) HEK293 cells were co-expressed with GFP-VCP and Myc-73Q FL plasmids as indicated. After 48 hours incubation with the indicated peptides ( 3 µM/day, each), immunoprecipitation analysis was performed. The shown blots are from three independent experiments. (c) HEK293 cells were co-expressed with GFP-VCP and Myc-73Q FL plasmids as indicated. […] The blots of the bindings of mtHtt/VCP were quantitated with NIH Image J software. The IC50 was calculated. […]
# [3] = system: HdhQ111 striatal cells and striata of HD R6/2 and YAC128 mice; assay: VCP total protein level, HD cells and HD mouse striata (western blot); settings: HV-3 treatment, HD cell cultures and HD animal brains
# Experimental: Protein concentrations were determined by Bradford assay. Protein was resuspended in Laemmli buffer, loaded on SDS–PAGE, and transferred onto nitrocellulose membranes. Membranes were probed with the indicated antibodies, followed by visualization with ECL. Representative blots have been cropped for presentation. Images of full-size blots are presented in Supplementary Fig. 9. […]
# green). Lower: the enlarged area is labeled in green. (f) The sequence in VCP corresponding to HV-3 in Htt was deleted (Δ VCP). GST, GST-VCP, or GST-ΔVCP was incubated with total lysates of mouse brain for 16 hours followed by Western blot with anti -Htt antibodies. The representative blots are from three independent experiments.
# Supplementary Figure 5: Treatment of peptide inhibitor HV-3 in HD animal models. (a) HD R6/2 mice and wildtype littermates were treated with either a control peptide or peptide HV-3 (3 mg/kg/day, subcutaneous administration with an Alzet osmotic pump) from 5 to 13 weeks of age. The pump was replaced every four weeks. […] Mouse behaviors and HD -associated pathology were determined […] after beginning treatment. […]
# (b) To t a l protein lysates were extracted from HdhQ111 striatal cells and the striata of HD R6/2 and YAC128 mice. VCP protein levels were determined by Western blot analysis. […]
compound,measurement,setting,value
CSCC[C@H](NC(=O)[C@@H](NC(=O)[C@H](CC(C)C)NC(=O)[C@@H](NC(=O)[C@H](Cc1c[nH]cn1)NC(=O)CCCCCNC(=O)[C@H](CCCNC(=N)N)NC(=O)[C@H](CCCNC(=N)N)NC(=O)[C@H](CCCNC(=N)N)NC(=O)[C@H](CCC(N)=O)NC(=O)[C@H](CCCNC(=N)N)NC(=O)[C@H](CCCNC(=N)N)NC(=O)[C@H](CCCCN)NC(=O)[C@H](CCCCN)NC(=O)[C@H](CCCNC(=N)N)NC(=O)CNC(=O)[C@@H](N)Cc1ccc(O)cc1)C(C)C)C(C)C)C(=O)N[C@@H](CS)C(=O)N[C@@H](C)C(=O)N[C@H](C(N)=O)[C@@H](C)O [HV-3],lysosome hyperactivity,[1],corrected these aberrant events
same,block of VCP/Htt interaction,[2],only the addition of peptide HV-3 blocks the interaction of VCP/Htt
same,VCP total protein levels,[3],no effects on VCP total protein levels
